How the values were obtained:
[1] = target: Calcium/calmodulin-dependent protein kinase type 1D (Homo sapiens) (UniProt Q8IU85); experiment: Inhibition of recombinant human His-tagged full length CAMK1delta expressed in baculovirus expression system using Ser/Thr 25 as substrate at 0.1 uM incubated for 60 mins by Z'-Lyte assay relative to control
[2] = target: T1, Ephrin type-B receptor 2 (Homo sapiens) (UniProt P29323); experiment: Inhibition of recombinant human GST-tagged EPHB2 (616 to 884 residues) expressed in baculovirus expression system using Tyr 02 as substrate at 0.1 uM incubated for 60 mins by Z'-Lyte assay relative to control
T1 sequence (whole entry): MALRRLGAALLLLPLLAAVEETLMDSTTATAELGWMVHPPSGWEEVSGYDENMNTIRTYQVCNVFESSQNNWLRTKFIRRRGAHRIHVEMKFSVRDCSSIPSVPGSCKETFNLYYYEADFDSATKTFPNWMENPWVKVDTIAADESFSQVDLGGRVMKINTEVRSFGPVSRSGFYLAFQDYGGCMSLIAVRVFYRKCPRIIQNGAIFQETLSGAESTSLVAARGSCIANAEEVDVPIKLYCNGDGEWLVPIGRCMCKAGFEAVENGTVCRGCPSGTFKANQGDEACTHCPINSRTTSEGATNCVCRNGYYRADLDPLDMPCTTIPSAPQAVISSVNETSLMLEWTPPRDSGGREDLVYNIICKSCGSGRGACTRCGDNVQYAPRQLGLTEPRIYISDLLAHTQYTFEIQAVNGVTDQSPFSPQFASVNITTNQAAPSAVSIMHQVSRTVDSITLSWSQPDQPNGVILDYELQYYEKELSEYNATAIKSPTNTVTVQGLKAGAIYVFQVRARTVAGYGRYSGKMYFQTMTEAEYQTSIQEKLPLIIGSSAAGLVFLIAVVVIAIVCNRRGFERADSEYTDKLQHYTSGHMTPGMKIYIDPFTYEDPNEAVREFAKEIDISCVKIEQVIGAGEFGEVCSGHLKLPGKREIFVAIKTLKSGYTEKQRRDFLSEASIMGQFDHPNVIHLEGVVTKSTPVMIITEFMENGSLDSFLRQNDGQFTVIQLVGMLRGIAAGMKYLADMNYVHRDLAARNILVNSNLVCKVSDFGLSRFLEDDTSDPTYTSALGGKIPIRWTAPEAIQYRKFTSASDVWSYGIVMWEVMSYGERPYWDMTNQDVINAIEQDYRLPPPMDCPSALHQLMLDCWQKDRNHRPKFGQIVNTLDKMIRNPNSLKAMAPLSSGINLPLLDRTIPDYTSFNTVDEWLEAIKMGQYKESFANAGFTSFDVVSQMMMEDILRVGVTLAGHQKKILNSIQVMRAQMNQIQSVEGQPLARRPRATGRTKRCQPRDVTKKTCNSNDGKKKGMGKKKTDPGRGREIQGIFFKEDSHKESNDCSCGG

LRRK2 = LRRK2 (Homo sapiens, UniProt Q5S007); experiment: Inhibition of recombinant human GST-tagged LRRK2 (970 to 2527 residues) expressed in baculovirus expression system using LRRKtide as substrate at 0.1 uM incubated for 60 mins by Adapta assay relative to control; conditions: probe LRRKtide
Chain of LRRK2 (Q5S007 whole entry, the tested form may be a part): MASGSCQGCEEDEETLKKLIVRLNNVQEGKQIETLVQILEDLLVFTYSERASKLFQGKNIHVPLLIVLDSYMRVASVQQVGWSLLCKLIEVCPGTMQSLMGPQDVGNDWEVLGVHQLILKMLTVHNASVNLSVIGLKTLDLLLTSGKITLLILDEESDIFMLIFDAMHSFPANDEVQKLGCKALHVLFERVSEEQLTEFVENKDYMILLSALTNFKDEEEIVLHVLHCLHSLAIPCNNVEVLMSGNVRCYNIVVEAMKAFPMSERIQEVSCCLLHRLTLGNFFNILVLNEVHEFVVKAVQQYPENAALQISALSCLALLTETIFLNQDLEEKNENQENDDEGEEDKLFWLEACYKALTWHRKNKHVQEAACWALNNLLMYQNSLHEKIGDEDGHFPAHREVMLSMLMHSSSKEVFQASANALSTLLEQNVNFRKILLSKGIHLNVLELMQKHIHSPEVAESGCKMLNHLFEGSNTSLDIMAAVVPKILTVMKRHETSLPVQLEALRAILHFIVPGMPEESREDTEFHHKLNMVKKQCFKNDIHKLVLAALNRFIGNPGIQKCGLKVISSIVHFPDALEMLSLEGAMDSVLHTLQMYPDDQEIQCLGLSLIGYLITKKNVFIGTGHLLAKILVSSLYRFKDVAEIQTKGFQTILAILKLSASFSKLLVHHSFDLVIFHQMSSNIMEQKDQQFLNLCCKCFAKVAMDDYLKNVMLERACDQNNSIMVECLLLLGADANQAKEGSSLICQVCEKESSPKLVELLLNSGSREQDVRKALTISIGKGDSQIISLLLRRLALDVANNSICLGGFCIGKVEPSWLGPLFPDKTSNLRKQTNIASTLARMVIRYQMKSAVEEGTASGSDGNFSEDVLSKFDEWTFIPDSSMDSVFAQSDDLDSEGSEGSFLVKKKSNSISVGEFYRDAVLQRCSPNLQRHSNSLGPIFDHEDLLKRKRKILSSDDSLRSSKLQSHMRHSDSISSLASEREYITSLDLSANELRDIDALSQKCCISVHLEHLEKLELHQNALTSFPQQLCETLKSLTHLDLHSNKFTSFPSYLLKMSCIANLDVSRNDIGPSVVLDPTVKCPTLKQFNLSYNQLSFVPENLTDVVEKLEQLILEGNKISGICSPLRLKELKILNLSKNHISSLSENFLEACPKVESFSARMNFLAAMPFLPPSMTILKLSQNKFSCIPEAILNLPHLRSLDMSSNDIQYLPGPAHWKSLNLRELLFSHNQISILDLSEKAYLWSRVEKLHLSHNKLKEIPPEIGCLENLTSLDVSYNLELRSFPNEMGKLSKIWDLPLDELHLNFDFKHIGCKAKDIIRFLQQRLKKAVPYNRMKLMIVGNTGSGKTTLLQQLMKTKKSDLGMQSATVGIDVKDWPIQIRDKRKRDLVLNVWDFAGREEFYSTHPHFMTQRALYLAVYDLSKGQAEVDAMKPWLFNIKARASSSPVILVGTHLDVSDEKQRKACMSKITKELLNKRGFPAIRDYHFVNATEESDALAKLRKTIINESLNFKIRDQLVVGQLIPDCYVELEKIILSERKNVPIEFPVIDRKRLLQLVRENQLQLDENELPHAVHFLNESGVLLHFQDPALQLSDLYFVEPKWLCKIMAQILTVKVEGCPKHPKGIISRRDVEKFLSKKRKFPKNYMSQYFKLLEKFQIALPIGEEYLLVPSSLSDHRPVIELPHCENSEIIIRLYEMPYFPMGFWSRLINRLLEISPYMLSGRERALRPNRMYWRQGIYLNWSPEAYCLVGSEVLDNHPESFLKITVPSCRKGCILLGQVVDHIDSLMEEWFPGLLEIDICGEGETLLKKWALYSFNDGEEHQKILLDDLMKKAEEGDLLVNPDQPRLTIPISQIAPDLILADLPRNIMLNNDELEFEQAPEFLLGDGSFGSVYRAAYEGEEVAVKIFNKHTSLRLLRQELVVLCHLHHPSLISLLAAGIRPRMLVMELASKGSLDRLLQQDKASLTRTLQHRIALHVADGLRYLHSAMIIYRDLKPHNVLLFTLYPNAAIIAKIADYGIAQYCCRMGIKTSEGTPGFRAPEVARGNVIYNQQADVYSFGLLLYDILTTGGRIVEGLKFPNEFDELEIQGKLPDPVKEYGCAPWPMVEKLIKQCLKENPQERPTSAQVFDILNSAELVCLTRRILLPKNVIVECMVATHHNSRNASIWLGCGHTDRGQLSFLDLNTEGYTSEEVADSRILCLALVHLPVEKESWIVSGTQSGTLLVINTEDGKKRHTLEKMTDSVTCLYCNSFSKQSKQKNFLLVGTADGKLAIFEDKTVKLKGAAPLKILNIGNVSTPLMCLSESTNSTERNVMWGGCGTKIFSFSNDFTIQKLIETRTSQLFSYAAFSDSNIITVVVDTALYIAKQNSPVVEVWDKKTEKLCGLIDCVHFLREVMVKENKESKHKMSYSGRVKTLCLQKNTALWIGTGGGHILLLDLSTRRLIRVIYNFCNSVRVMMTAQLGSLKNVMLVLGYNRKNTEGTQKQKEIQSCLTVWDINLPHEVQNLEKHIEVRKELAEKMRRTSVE

[3] = target: T2, Interleukin-1 receptor-associated kinase 4 (Homo sapiens) (UniProt Q9NWZ3); experiment: Inhibition of recombinant human His-tagged full length IRAK4 expressed in baculovirus expression system using Ser/Thr 07 as substrate at 0.1 uM incubated for 60 mins by Z'-Lyte assay relative to control
T2 sequence (whole entry): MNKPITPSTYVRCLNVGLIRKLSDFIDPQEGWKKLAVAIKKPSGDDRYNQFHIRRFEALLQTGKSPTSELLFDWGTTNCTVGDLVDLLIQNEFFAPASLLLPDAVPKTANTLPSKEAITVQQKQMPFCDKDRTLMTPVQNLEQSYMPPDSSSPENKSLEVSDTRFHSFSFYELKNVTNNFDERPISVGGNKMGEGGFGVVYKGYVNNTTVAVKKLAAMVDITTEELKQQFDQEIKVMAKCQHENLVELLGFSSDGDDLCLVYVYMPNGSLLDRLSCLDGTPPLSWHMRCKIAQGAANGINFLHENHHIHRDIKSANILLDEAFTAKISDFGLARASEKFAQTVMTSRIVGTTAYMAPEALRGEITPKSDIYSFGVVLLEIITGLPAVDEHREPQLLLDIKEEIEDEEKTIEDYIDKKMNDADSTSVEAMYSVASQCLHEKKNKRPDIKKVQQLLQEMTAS

Chain of Calcium/calmodulin-dependent protein kinase type 1D (Homo sapiens) (Q8IU85 whole entry, looked up, the tested form may be a part): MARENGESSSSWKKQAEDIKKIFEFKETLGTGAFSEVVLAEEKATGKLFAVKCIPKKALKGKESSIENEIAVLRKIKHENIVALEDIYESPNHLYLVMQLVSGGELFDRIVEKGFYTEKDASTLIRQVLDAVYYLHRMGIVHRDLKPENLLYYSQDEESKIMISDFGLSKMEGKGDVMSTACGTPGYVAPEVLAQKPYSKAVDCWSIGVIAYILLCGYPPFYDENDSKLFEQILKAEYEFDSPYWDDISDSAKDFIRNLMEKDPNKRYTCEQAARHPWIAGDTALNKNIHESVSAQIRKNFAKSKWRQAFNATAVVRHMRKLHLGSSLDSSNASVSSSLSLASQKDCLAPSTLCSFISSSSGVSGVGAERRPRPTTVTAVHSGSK

| SMILES | inhibition [1] [%] | inhibition [2] [%] | inhibition at 1 h, 0.1 µM (LRRK2) [%] | inhibition [3] [%] |
| --- | --- | --- | --- | --- |
| O=C(Nc1c[nH]nc1-c1cc(Cl)ccc1OC(F)F)c1cnn2cccnc12 | 8 | 10 | 87 | 0 |
| O=C(Nc1c[nH]nc1-c1cc2ccccc2cc1OC(F)F)c1cnn2cccnc12 | 15 | -3 | 31 | 4 |
| Cn1cc(NC(=O)c2cnn3cccnc23)c(-c2cc(Cl)ccc2OC(F)F)n1 | 6 | 1 | 61 | -4 |
